Data as given in patent publication US20080293583A1, “Methods for diagnosing mood disorders” (Wyeth, priority 2003, published 2008).

Test system: progenitor stem cells in the subgranular zone (SGZ) of the hippocampus
Assay: BrdU immunostaining, long-term survivability of progenitor stem cells in SGZ
Format: in vivo, rat
Conditions: for number of surviving cells in the SGZ relative to saline controls / basal levels: 4 weeks after the last BrdU injection
Protocol: Antidepressant treatment and BrdU dosing. Dosing of adult male Sprague Dawley rats was performed as described above for 14 days (n=10 rats per group). To evaluate the effect of chronic antidepressant treatment on proliferation of progenitor stem cells, 24 hours after the last antidepressant injection, rats were administered BrdU (Sigma, St. Louis, Mo.) (50 mg/kg rig ip injection twice a day) for 4 days prior to euthanesia. To evaluate the effect of chronic antidepressant treatment on survival of progenitor stem cells, a sub-group of rats were allowed to live for 4 weeks after BrdU injection. All rats were perfused through the ascending aorta with 50 ml of 0.9% saline, followed by 400 ml of freshly prepared 4% paraformaldehyde in PBS (pH 7.5). After 30-60 minutes post-perfusion, rat brains were removed and postfixed in 4% paraformaldehyde in PBS overnight, followed by immersion in 30% sucrose/PBS solution for 48-72 hours at 4° C. Brains were rapidly frozen on dry-ice and stored at −80° C. Brain sectioning and staining for BrdU immunoreactivity were performed as previously described by Malberg et al. (2000). Briefly, serial coronal sections of each brain were cut (35 μm thickness) through the entire hippocampus (stereotaxic plates 26-40 according to Paxinos, Watson and Emson, 1980) using a freezing microtome. Every sixth section throughout the hippocampus was processed for BrdU staining. Free-floating sections were maintained in 100 mM PBS (about 100 sections per brain). DNA denaturation of the sections was performed as follows: sections were treated with 50% formamide/50% 2×SSC (0.3 M NaCl/0.03 M sodium citrate) for 2 hours at 65° C., rinsed in PBS (2 times for 5 minutes at room temperature), incubated with 2 N HCl for 30 minutes, followed by 0.1 M boric acid buffer (pH 8.5) for 10 minutes and a final rinse in PBS. For BrdU immunostaining, sections were incubated with 3% H2O2 in PBS for 30 minutes, rinsed in PBS and blocked with 3% normal horse serum in 0.01% TritonX-100 for 30 minutes. Anti-mouse BrdU (1:250 Sigma) was applied to the free-floating sections and incubated overnight at 4° C. The sections were rinsed in PBS, incubated with biotinylated horse, anti-mouse IgG (Vector Lab) for 30 minutes and washed in PBS. ABC reagent complex (Vectastain Elite kit from Vector) was added (as per manufacturer's instructions) for 30 minutes, followed by rinsing in PBS and color development with DAB solution for 4 minutes. Sections were mounted on glass slides and coverslipped. All BrdU labeled cells in the subgranular zone (SGZ) were counted in each section by an experimenter blinded to the study code. All counts were performed at 200× magnification using a light microscope (Zeiss Axiovert 135). The total number of BrdU labeled cells per section were determined and multiplied by 12 to obtain the total number of cells per dentate gyrus. Comparative analyses between treatments were performed using a Tukey HSD post hoc analysis for multiple comparisons.
In vivo studies were performed to measure the effects of antidepressant drug treatment on adult hippocampal neurogenesis by immunological methods. The method used to detect cell proliferation involved 5-bromo-2-deoxyuridine (BrdU) dosing twice a day for 4 days after a 2 week systemic administration of either saline, fluoxetine or venlafaxine. The presence of BrdU within the vicinity of dividing progenitor stem cells in the hippocampal region allowed for its incorporation and the detection of DNA synthesis (the more cell proliferation the more DNA synthesis). The number of BrdU-positive cells was visualized by immunoperoxidase staining. The BrdU immunostaining and quantitative results indicated a significant increase (˜33%) in the proliferation rate of progenitor stem cells in the subgranular zone (SGZ) of the hippocampus for both venlafaxine (P<0.01; n=5) and fluoxetine (P<0.01; n=5) versus saline controls. […]

Row | SMILES | number of surviving cells in the SGZ relative to saline controls / basal levels (FIG. 1B) | number of surviving cells in the SGZ relative to saline controls / basal levels (FIG. 1B, listed as fluoxetine) | sustainability in the rate of proliferation and survivability of progenitor stem cells over basal levels (4 weeks after the last antidepressant dose) | overall number of surviving cells, venlafaxine versus fluoxetine (FIG. 1B, P<0.01) | more cells compared with fluoxetine (long-term survivability, venlafaxine versus fluoxetine)
1 | CNCCC(Oc1ccc(C(F)(F)F)cc1)c1ccccc1 (stereo not drawn) [Fluoxetine, fluoxetine] | significant preservation of proliferative and survivability effects over basal levels | increased the number of surviving cells in the SGZ | – | – | –
2 | COc1ccc(C(CN(C)C)C2(O)CCCCC2)cc1 (stereo not drawn) [Venlafaxine, venlafaxine] | increased the number of surviving cells in the SGZ | – | 80% | significant increase in the overall number of surviving cells | ~40%
